Data set [1] in a line: Microsomal stability assay, dog. It counts as in vitro ADME. The settings on record: metabolic stability, dog liver microsomes 0.5 mg/mL, substrate 3 uM. The method in brief:
(§1)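 Liver microsomes at 0.5 mg/mL protein in 100 mM KPO4 buffer, incubated with 3 uM compound and NADPH-regenerating system, run in duplicate. Samples taken at 2, 12, 25, 45 and 65 min and quenched in MeOH/ACN/water before analysis.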
(Microsomes from liver hold many membrane-bound enzymes, among them those of drug oxidation.)

Data set [2] in a line: Microsomal stability assay, human. It counts as in vitro ADME. The settings on record: metabolic stability, human liver microsomes 0.5 mg/mL, substrate 3 uM. An outline of the steps:
as §1

Data set [3] deals with T1, hNav1.1 (Homo sapiens, UniProt P35498).
T1 construct: expressed in transfected cells; host or cells: HEK293, transient transfection (α1:β1:β2 = 10:1:1)
Description: Nav1.1 use-dependent block, whole-cell voltage clamp. It counts as cell-based. As to conditions: use-dependent block 10 Hz, read-out: NAv1.1*-CHAN TEST-UDB-10 HZ-.

Data set [4] has as its target T2, Human Nav1.2 (Homo sapiens, UniProt Q99250).
T2 construct: expressed in transfected cells
Briefly: Nav1.2 use-dependent block, whole-cell voltage clamp. It counts as cell-based. The settings on record: use-dependent block 10 Hz, read-out: NAv1.2*-CHAN TEST-UDB-10 HZ-. From the text:
Wild-type (WT) cDNA stably transfected in Chinese hamster ovary (CHO) cells is used to record INa. Unless otherwise noted, all reagents are purchased from Sigma-Aldrich (St Louis, Mo., U.S.A.).
Whole-cell voltage-clamp recordings are used to measure the biophysical properties of WT. Briefly, the pipette solution consists of (in mM) 110 CsF, 10 NaF, 20 CsCl, 2 EGTA, 10 HEPES, with a pH of 7.35 and osmolarity of 300 mOsmol/kg. The bath (control) solution contains in (mM): 145 NaCl, 4 KCl, 1.8 CaCl2, 1 MgCl2, 10 dextrose, 10 HEPES, with a pH of 7.35 and osmolarity of 310 mOsmol/kg. Cells are allowed to stabilize for 10 min after establishment of the whole-cell configuration before current is measured. Series resistance is compensated 90% to assure that the command potential is reached within microseconds with a voltage error <2 mV. Leak currents are subtracted by using an online P/4 procedure and all currents are low-pass Bessel filtered at 5 kHz and digitized at 50 kHz.
Tonic block of peak current is measured using a step to −10 mV (20 ms) from a holding potential of −120 mV (0.2 Hz). Use-dependent block of peak current is measured during pulse number 300 of a pulse train (−10 mV, 5 ms, 300 pulses, 10 Hz or 25 Hz) from a holding potential of −120 mV. Two sequential pulse train stimulations are averaged to obtain mean current traces for each recording condition, which are then used for offline subtraction and analysis.
For use-dependent studies, cells are stimulated with depolarizing pulse trains (−10 mV, 5 ms, 300 pulses, 10 and 25 Hz) from a holding potential of −120 mV. Currents are then normalized to the peak current recorded in response to the first pulse in each frequency train. For tonic block studies, peak current is evaluated in response to a 20 ms depolarization to −10 mV (0.2 Hz). Data analysis is performed using Clampfit 9.2 (Axon Instruments, Union City, Calif., U.S.A), Excel 2002 (Microsoft, Seattle, Wash., U.S.A.), and OriginPro 7.0 (OriginLab, Northampton, Mass., U.S.A) software. Results are presented as mean±SEM.
A stock solution of 10 mM compound of Formula I is prepared in 0.1 M HCl or DMSO. A fresh dilution of the compound of Formula I in the bath solution is prepared every experimental day and the pH is readjusted to 7.35 as necessary. The final DMSO concentration was kept at 0.1% in all solutions. Direct application of the perfusion solution to the clamped cell is achieved using the Perfusion Pencil system (Automate, Berkeley, Calif.). Direct cell perfusion is driven by gravity at a flow rate of 350 μL/min using a 250 micron tip. This system sequesters the clamped cell within a perfusion stream and enables complete solution exchange within 1 second. The clamped cell is perfused continuously starting immediately after establishing the whole-cell configuration. Control currents are measured during control solution perfusion.
Solutions are perfused for three minutes prior to current recordings to allow equilibrium (tonic) drug block. Tonic block of peak currents is measured from this steady-state condition. Three sequential current traces are averaged to obtain a mean current for each recording. The mean current traces are utilized for offline analysis. Use-dependent block of peak current is measured during pulse number 300 of the pulse train, (−10 mV, 5 ms, 300 pulses, 10 Hz) from a holding potential of −120 mV. Two sequential pulse train stimulations are averaged to obtain mean current traces for each recording condition, which are then used for offline subtraction and analysis. Where appropriate, concentration inhibition curves are fit with the Hill equation: I/Imax=1/[1+10̂(log IC50−I)*k], where IC50 is the concentration that produces half inhibition and k is the Hill slope factor.

MS Dog THalf, MS Human THalf and inhibition data for eight compounds are collected here from patent publication US20150329558A1, “FUSED HETEROCYCLIC COMPOUNDS AS ION CHANNEL MODULATORS” (Gilead Sciences, Inc., priority 2011, published 2015).

The structures appear in SMILES notation.

T2 sequence (Q99250 whole entry): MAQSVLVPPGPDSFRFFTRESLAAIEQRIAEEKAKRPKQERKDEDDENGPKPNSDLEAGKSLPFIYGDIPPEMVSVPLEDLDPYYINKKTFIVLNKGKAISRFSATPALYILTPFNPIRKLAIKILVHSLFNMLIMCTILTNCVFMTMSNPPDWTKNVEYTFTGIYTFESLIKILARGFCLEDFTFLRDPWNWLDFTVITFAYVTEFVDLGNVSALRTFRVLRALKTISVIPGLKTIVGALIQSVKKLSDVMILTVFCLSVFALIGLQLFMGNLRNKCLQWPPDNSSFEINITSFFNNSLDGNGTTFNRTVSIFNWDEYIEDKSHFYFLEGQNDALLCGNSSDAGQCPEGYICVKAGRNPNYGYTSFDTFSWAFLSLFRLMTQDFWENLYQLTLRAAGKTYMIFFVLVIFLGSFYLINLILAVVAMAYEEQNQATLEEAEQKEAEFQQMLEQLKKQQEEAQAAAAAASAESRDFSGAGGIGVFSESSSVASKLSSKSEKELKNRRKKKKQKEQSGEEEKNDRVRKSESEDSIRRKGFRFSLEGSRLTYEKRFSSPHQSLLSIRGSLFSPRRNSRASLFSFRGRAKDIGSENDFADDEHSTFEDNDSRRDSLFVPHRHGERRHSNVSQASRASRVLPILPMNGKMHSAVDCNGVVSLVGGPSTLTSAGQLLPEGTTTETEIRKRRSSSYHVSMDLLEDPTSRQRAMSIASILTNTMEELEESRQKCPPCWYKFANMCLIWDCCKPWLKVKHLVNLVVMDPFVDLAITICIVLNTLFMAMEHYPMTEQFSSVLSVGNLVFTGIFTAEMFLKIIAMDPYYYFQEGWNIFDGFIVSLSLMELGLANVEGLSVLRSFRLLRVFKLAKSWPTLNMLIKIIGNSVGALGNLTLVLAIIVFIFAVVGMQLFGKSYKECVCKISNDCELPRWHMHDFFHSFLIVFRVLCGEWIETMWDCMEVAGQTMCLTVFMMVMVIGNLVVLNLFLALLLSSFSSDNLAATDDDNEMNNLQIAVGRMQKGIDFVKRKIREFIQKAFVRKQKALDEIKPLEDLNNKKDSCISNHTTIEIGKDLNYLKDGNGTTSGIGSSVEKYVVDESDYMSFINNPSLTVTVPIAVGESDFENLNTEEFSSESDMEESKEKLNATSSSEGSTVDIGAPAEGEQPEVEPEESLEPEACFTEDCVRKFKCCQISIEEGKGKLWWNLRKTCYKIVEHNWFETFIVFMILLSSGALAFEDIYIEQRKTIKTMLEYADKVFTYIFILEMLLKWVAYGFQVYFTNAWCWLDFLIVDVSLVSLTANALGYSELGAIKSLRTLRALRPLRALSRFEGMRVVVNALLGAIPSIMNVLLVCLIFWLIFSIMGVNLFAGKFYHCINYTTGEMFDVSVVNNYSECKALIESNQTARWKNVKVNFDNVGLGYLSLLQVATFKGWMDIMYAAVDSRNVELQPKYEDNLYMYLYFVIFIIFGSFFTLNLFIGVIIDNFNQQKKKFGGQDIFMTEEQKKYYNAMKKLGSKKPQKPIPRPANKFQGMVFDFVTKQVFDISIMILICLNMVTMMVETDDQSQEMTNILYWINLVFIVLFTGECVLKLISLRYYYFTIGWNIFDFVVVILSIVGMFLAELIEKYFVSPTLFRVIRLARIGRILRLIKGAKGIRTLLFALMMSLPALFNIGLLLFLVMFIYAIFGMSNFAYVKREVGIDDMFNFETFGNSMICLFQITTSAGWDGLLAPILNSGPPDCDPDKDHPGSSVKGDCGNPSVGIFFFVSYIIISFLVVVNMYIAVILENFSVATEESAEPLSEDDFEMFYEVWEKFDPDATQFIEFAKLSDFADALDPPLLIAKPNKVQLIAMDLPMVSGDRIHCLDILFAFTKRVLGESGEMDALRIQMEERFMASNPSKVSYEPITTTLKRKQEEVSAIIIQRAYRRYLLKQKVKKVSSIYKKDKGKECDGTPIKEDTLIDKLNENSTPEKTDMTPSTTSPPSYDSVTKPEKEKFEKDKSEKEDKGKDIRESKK

`O=C1c2cc(-c3ccc(OC(F)(F)F)cc3)ccc2CCN1Cc1ncccn1` [IX-1, 2-(pyrimidin-2-ylmethyl)-7-(4-(trifluoromethoxy)phenyl)-3,4-dihydroisoquinolin-1(2H)-one] showed an MS Dog THalf in data set [1] of 157 min. Moreover, the MS Human THalf in data set [2] is more than 395 min. The inhibition at 1 µM was -5.9% in data set [3] and 3.8% in data set [4].
The corresponding values for `O=C1c2cc(-c3ccc(C(F)(F)F)cc3)ccc2CCN1Cc1ncccn1` [IX-3, 2-(pyrimidin-2-ylmethyl)-7-(4-(trifluoromethyl)phenyl)-3,4-dihydroisoquinolin-1(2H)-one] are 320 min, 304 min, 2.9% and -4.1%.
`O=C(c1ncccn1)N1CCc2ccc(-c3ccc(C(F)(F)F)cc3)cc2C1` [IX-7, pyrimidin-2-yl(7-(4-(trifluoromethyl)phenyl)-3,4-dihydroisoquinolin-2(1H)-yl)methanone] registered an MS Dog THalf in data set [1] of more than 395 min. The MS Human THalf in data set [2] was more than 395 min. For the same compound, the inhibition at 1 µM is 2.02% in data set [3] and 8.62% in data set [4].
Take `O=C(c1cccnn1)N1CCc2ccc(-c3ccc(C(F)(F)F)cc3)cc2C1` [IX-17, Pyridazin-3-yl(7-(4-(trifluoromethyl)phenyl)-3,4-dihydroisoquinolin-2 (1H)-yl) methanone]: in data set [1], the MS Dog THalf is more than 395 min. This compound also registered an MS Human THalf in data set [2] of 257 min. Further, the figures for the inhibition at 1 µM in data set [3] and in data set [4] were 1.5% and 10.4%, respectively.
The corresponding values for `Cn1cnc(C(=O)N2CCc3ccc(-c4ccc(C(F)(F)F)cc4)cc3C2)c1` [IX-39, (1-methyl-1H-imidazol-4-yl)(7-(4-(trifluoromethyl)phenyl)-3,4-dihydroisoquinolin-2(1H)-yl)methanone] are 256 min, more than 395 min, 1.5% and 16.8%.
The matching figures for `O=C1c2cc(-c3ccc(C(F)(F)F)cc3)ccc2OCN1Cc1ccccn1` [VIII-1, 3-(pyridin-2-ylmethyl)-6-(4-(trifluoromethyl)phenyl)-2H-benzo[e][1,3]oxazin-4(3H)-one]: 210 min, 125 min, 4.4% and 16%.
For the compound `O=C1c2cc(-c3ccc(OC(F)(F)F)cc3)ccc2OCN1Cc1ccccn1` [VIII-3, 3-(pyridin-2-ylmethyl)-6-(4-(trifluoromethoxy)phenyl)-2H-benzo[e][1,3]oxazin-4(3H)-one], the MS Dog THalf in data set [1] was determined as 164 min. For the same compound, the MS Human THalf in data set [2] was determined as 285 min. Besides, the results for the inhibition at 1 µM in data set [3] and in data set [4] were 3.1% and 11.7%, respectively.
The corresponding values for `CC1Oc2ccc(-c3ccc(OC(F)(F)F)cc3)cc2C(=O)N1Cc1ncccn1` (centres unmarked) [VIII-7, 2-methyl-3-(pyrimidin-2-ylmethyl)-6-(4-(trifluoromethoxy)phenyl)-2H-benzo[e][1,3]oxazin-4(3H)-one] are 392 min, 221 min, 12.1% and 18.2%.
